Experiments:
[1] = test system: FRP-1/CD98/4F2hc; assay: FACScan of FRP-1/CD98/4F2hc expression on macrophage fraction of LPS-stimulated human PBMC (monoclonal antibodies 4-5-1, 6-1-3, HBJ-127); assay type: cell-based
[2] = test system: 4F2hc; assay: HAT heavy chain 4F2hc on large-monocyte fraction of LPS-stimulated human PBMC, peak value by FACScan (polyclonal antibody); assay type: cell-based
Description: In the same manner as in 1) to 5) of Experimental Example 1, to human peripheral blood mononuclear cells, the test compound (6-2) (final concentration: 10 nM) or the test compound (7-3) (final concentration: 100 nM) was added at the same time when LPS (final concentration: 80 μg/ml) was added, followed by 6-day culture. Further, in the same manner as above, using rabbit anti-human 4F2hc polyclonal antibodies (see Biol Pharm Bull 30:415-422, 2007) as a primary antibody, the peak value of HAT expressed on the fraction of large-macrophages (larger than monocyte macrophages) in human PBMC was measured by FACScan using a commercially available cell fix/cell membrane infiltration kit (trade name: BD Cytofix/Cytoperm™ Kit, catalog No. 554714, BD Biosciences).
As a control, the one with no test-compound addition was used, and as a rabbit anti-human rBAT (related to b^0,+-type amino acid transporter) polyclonal antibody, the one obtained by coupling a synthesized peptide composed of an amino-terminal of human rBAT (MAEDKSKRDSIEMSMKGC (SEQ ID NO: 2)) and a carboxyl-terminal of mouse b^0,+AT (BAT1) (CHLQMLEWPEKDPE (SEQ ID NO: 3)) to a carrier KLH (keyhole-limpet hemocyanin), and immunizing a rabbit with it.

[3] = test system: 4F2hc; assay: 4F2hc on large-cell fraction of interferon γ-stimulated THP-1, peak value by FACScan; assay type: cell-based, human
Description: (§1) The same procedures as in Experimental Example 2 were taken except the following conditions: human leukemia culture cell line THP-1 was used instead of the human peripheral blood mononuclear cells; the final addition concentration of the test compound (6-2) was set to 100 nM; fetal bovine serum was used instead of the human AB serum; and human recombinant interferon γ (PHP050, Serotec) (final concentration: 100 ng/ml) was used instead of LPS. Also, using rabbit anti-human 4F2hc polyclonal antibodies (see Biol Pharm Bull 30: 415-422, 2007) as the primary antibody, the peak value of HAT expressed on the fraction of large-cells in human leukemia culture cell strain THP-1, compared with those not stimulated with LPS, was measured. As a control, the one with no test-compound (DMSO alone) was used, and the rabbit anti-human rBAT polyclonal antibodies were obtained in the same manner as in Experimental Example 2.

[4] = test system: rBAT; assay: rBAT on large-cell fraction of interferon γ-stimulated THP-1, peak value by FACScan; assay type: cell-based, human
Description: as §1

[5] = human PBMC + LPS 80 μg/ml, 6-day culture, test compound 10 nM
[6] = THP-1 + interferon γ, summary of Table 4

O=C1CCC(F)(C(=O)OCc2ccccc2)O1 (centres unmarked) [Compound (6-2)]
expression of the FRP-1/CD98/4F2hc molecule lowered to ([1]; a different normal human PBMC, where expression was enhanced to 90% or more, not shown in Table): ≤ 5%
Migration of FRP-1/CD98/4F2hc expression of macrophage fraction by FACScan (migration rate %), monoclonal antibody 4-5-1 (FRP-1) [1, 5]: 32.7%
Migration of FRP-1/CD98/4F2hc expression of macrophage fraction by FACScan (migration rate %), monoclonal antibody 6-1-3 (FRP-1) [1, 5]: 29.8%
Migration of FRP-1/CD98/4F2hc expression of macrophage fraction by FACScan (migration rate %), monoclonal antibody HBJ-127 (CD98) [1, 5]: 11.0%
expression of FRP-1/CD98/4F2hc on macrophage fraction of human PBMC (in words) ([1]; stimulated and cultured with LPS, summary of Table 1): increased the expression
Change in HAT expressed on large-monocyte fraction of human PBMC (peak value by FACScan), 4F2hc ([2]; human PBMC + LPS 80 μg/ml, 6-day culture, test compound 10 nM, solvent control 23): 10
amount of 4F2hc in the heavy chain of HAT (in words) ([2]; human PBMC + LPS, summary of Table 2): selectively decreased
Change in HAT expressed on large-cell fraction of THP-1 (peak value by FACScan), 4F2hc ([3]; THP-1 + human recombinant interferon γ 100 ng/ml, test compound 100 nM, solvent control 16): 10
amount of 4F2hc in the heavy chain of HAT (in words) [3, 6]: selectively decreased
Change in HAT expressed on large-cell fraction of THP-1 (peak value by FACScan), rBAT ([4]; THP-1 + human recombinant interferon γ 100 ng/ml, test compound 100 nM, solvent control 55): 50
amount of rBAT (in words) [4, 6]: without any influence

— patent US20090041719A1, “Method for screening therapeutic agent for glomerular disorder” (priority 2006, published 2009)
